16 sequences from patent US20260250318A1, “COMPOSITIONS AND METHODS FOR CROSSING THE BLOOD BRAIN BARRIER” (VOYAGER THERAPEUTICS, INC., priority 2022, published 2026) can be followed below.

Holding throughout (conditions): synthetic library passage 3, intravenous, relative to wild-type AAV9
The subject of experiment [1] is brain, spinal cord, and DRG of the NHPs. Put plainly: NGS fold enrichment of synthetic library (passage 3) in NHPs, first cross-species screen. The class given is in vivo, cynomolgus macaques (Macaca fascicularis). Put shortly: (§1)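 Synthetic capsid library (passage 3) was given intravenously […] to NHPs aged 2-4 years and to BALB/c and C57Bl/6 mice (n=3 each, 6-8 weeks). After about 28 days in vivo, tissue RNA was RT-PCR amplified and NGS-sequenced; values are fold enrichment per variant relative to wild-type AAV9.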

For experiment [2], the system named is brain. Put plainly: NGS fold enrichment of synthetic library (passage 3) in BALB/c mice, first cross-species screen. The class given is in vivo. Put shortly:
as §1

Experiment [3] has as its system brain. Put plainly: NGS fold enrichment of synthetic library (passage 3) in C57Bl/6 mice, first cross-species screen. The class given is in vivo. Put shortly:
as §1

Setting [4] is: RNA from spinal cord of NHPs, NGS.
Setting [5] is: RNA from brain of BALB/c mice, NGS.
The mark [6] stands for this setting: RNA from brain of C57Bl/6 mice, NGS.

Turning to GSGASRMSIQNQQT, the “Fold enrichment over AAV9 in the brain of NHPs” value in experiment [1] (RNA NGS, brain of NHPs) worked out at 1.045 fold. In experiment [1] (RNA NGS, spinal cord of NHPs), the “Fold enrichment over AAV9 in the spinal cord of NHPs” value was determined as 0.111 fold. In addition, the “Fold enrichment over AAV9 in the brain of Mice (BALB/c)” value (from here on “Fold enrichment over AAV9 … (BALB/c)”) in the experiment on brain [2] (RNA NGS, brain of BALB/c mice) is 0.417 fold. Besides, the “Fold enrichment over AAV9 in the brain of Mice (C57Bl/6)” value (shortened to “Fold enrichment over AAV9 … (C57Bl/6)”) in the experiment with brain [3] (RNA NGS, brain of C57Bl/6 mice) stood at 0.801 fold.

As to GASSLATSGQNQQT, the “Fold enrichment over AAV9 in the brain of NHPs” value in experiment [1] (RNA from brain of NHPs, NGS) came out at 1.337 fold. Also, in experiment [1] (setting [4]), the “Fold enrichment over AAV9 in the spinal cord of NHPs” value came to 0.703 fold. For the same sequence, the “Fold enrichment over AAV9 … (BALB/c)” value in the experiment on brain [2] (setting [5]) was 0.217 fold. In the experiment on brain [3] (setting [6]), the “Fold enrichment over AAV9 … (C57Bl/6)” value came out at 0.423 fold.

For GSGQASSKSANQQT, in experiment [1] (RNA from brain of NHPs, NGS), the “Fold enrichment over AAV9 in the brain of NHPs” value is given as 1.339 fold. Also, the “Fold enrichment over AAV9 in the spinal cord of NHPs” value in experiment [1] (setting [4]) was found to be 1.138 fold. In addition, the “Fold enrichment over AAV9 … (BALB/c)” value in the experiment with brain [2] (setting [5]) came to 0.175 fold. Besides, in the experiment with brain [3] (setting [6]), the “Fold enrichment over AAV9 … (C57Bl/6)” value is given as 0.500 fold.

With GSGQNQQHSLSSQT, the “Fold enrichment over AAV9 in the brain of NHPs” value in experiment [1] (RNA from brain of NHPs, NGS) is given as 1.150 fold. In addition, the “Fold enrichment over AAV9 in the spinal cord of NHPs” value in experiment [1] (setting [4]) was found to be 3.844 fold. The “Fold enrichment over AAV9 … (BALB/c)” value with brain [2] (setting [5]) stood at 0.730 fold. Also, in the experiment on brain [3] (setting [6]), the “Fold enrichment over AAV9 … (C57Bl/6)” value was 0.700 fold.

As to GPGLGSHSGQNQQT, the “Fold enrichment over AAV9 in the brain of NHPs” value in experiment [1] (RNA NGS, brain of NHPs) is 1.906 fold. In experiment [1] (RNA NGS, spinal cord of NHPs), the “Fold enrichment over AAV9 in the spinal cord of NHPs” value is 14.563 fold. Further, the “Fold enrichment over AAV9 … (BALB/c)” value with brain [2] (RNA NGS, brain of BALB/c mice) came to 1.195 fold. The “Fold enrichment over AAV9 … (C57Bl/6)” value in the experiment on brain [3] (RNA NGS, brain of C57Bl/6 mice) is 0.880 fold.

For GSGLSGITMQNQQT, the “Fold enrichment over AAV9 in the brain of NHPs” value in experiment [1] (RNA NGS, brain of NHPs) is on record as 1.792 fold. Also, the “Fold enrichment over AAV9 in the spinal cord of NHPs” value in experiment [1] (RNA NGS, spinal cord of NHPs) was 14.796 fold. Moreover, the “Fold enrichment over AAV9 … (BALB/c)” value with brain [2] (RNA NGS, brain of BALB/c mice) was found to be 0.496 fold. Also, in the experiment with brain [3] (RNA NGS, brain of C57Bl/6 mice), the “Fold enrichment over AAV9 … (C57Bl/6)” value was found to be 0.862 fold.

As for GSPLQDRVGQNQQT, in experiment [1] (RNA NGS, brain of NHPs), the “Fold enrichment over AAV9 in the brain of NHPs” value is 1.548 fold. The “Fold enrichment over AAV9 in the spinal cord of NHPs” value in experiment [1] (RNA NGS, spinal cord of NHPs) stood at 0.753 fold. Moreover, in the experiment with brain [2] (RNA NGS, brain of BALB/c mice), the “Fold enrichment over AAV9 … (BALB/c)” value came to 0.391 fold. Further, the “Fold enrichment over AAV9 … (C57Bl/6)” value in the experiment on brain [3] (RNA NGS, brain of C57Bl/6 mice) is reported as 0.469 fold.

With GGRNGHTVGQNQQT, the “Fold enrichment over AAV9 in the brain of NHPs” value in experiment [1] (RNA NGS, brain of NHPs) stood at 2.965 fold. Also, the “Fold enrichment over AAV9 in the spinal cord of NHPs” value in experiment [1] (RNA NGS, spinal cord of NHPs) is 3.732 fold. In the experiment on brain [2] (RNA NGS, brain of BALB/c mice), the “Fold enrichment over AAV9 … (BALB/c)” value came to 1.003 fold. In addition, in the experiment on brain [3] (RNA NGS, brain of C57Bl/6 mice), the “Fold enrichment over AAV9 … (C57Bl/6)” value was determined as 1.105 fold.

As for GSGQKQERAVSKQT, the “Fold enrichment over AAV9 in the brain of NHPs” value in experiment [1] (RNA from brain of NHPs, NGS) is 1.277 fold. Also, in experiment [1] (setting [4]), the “Fold enrichment over AAV9 in the spinal cord of NHPs” value is 0.000 fold. The “Fold enrichment over AAV9 … (BALB/c)” value with brain [2] (setting [5]) worked out at 0.732 fold. Besides, the “Fold enrichment over AAV9 … (C57Bl/6)” value with brain [3] (setting [6]) is given as 1.174 fold.

On to GSSVRYEPKQNQQT, for which the “Fold enrichment over AAV9 in the brain of NHPs” value in experiment [1] (RNA NGS, brain of NHPs) amounted to 1.063 fold. Further, in experiment [1] (RNA NGS, spinal cord of NHPs), the “Fold enrichment over AAV9 in the spinal cord of NHPs” value is 1.564 fold. Besides, the “Fold enrichment over AAV9 … (BALB/c)” value in the experiment with brain [2] (RNA NGS, brain of BALB/c mice) is on record as 0.501 fold. Moreover, the “Fold enrichment over AAV9 … (C57Bl/6)” value in the experiment on brain [3] (RNA NGS, brain of C57Bl/6 mice) worked out at 0.450 fold.

In the case of GSSHTLALGQNKQT, in experiment [1] (RNA from brain of NHPs, NGS), the “Fold enrichment over AAV9 in the brain of NHPs” value worked out at 1.362 fold. In addition, the “Fold enrichment over AAV9 in the spinal cord of NHPs” value in experiment [1] (setting [4]) was found to be 2.160 fold. In the experiment on brain [2] (setting [5]), the “Fold enrichment over AAV9 … (BALB/c)” value was found to be 0.643 fold. The “Fold enrichment over AAV9 … (C57Bl/6)” value in the experiment with brain [3] (setting [6]) amounted to 0.838 fold.

As for GVAGSLVSGQNQQT, the “Fold enrichment over AAV9 in the brain of NHPs” value in experiment [1] (RNA NGS, brain of NHPs) is 2.358 fold. Also, the “Fold enrichment over AAV9 in the spinal cord of NHPs” value in experiment [1] (RNA NGS, spinal cord of NHPs) is listed as 7.670 fold. The “Fold enrichment over AAV9 … (BALB/c)” value in the experiment with brain [2] (RNA NGS, brain of BALB/c mice) turned out to be 1.160 fold. Also, the “Fold enrichment over AAV9 … (C57Bl/6)” value with brain [3] (RNA NGS, brain of C57Bl/6 mice) was 1.321 fold.

Turning to GSGQLPRQMTNQQT, in experiment [1] (RNA from brain of NHPs, NGS), the “Fold enrichment over AAV9 in the brain of NHPs” value stood at 1.376 fold. For the same sequence, the “Fold enrichment over AAV9 in the spinal cord of NHPs” value in experiment [1] (setting [4]) is recorded as 3.550 fold. Besides, the “Fold enrichment over AAV9 … (BALB/c)” value in the experiment with brain [2] (setting [5]) is reported as 0.562 fold. Further, the “Fold enrichment over AAV9 … (C57Bl/6)” value with brain [3] (setting [6]) is 0.400 fold.

With GSGQNQQTALEKSL, in experiment [1] (RNA NGS, brain of NHPs), the “Fold enrichment over AAV9 in the brain of NHPs” value amounted to 1.092 fold. In experiment [1] (RNA NGS, spinal cord of NHPs), the “Fold enrichment over AAV9 in the spinal cord of NHPs” value is 0.000 fold. In addition, the “Fold enrichment over AAV9 … (BALB/c)” value in the experiment on brain [2] (RNA NGS, brain of BALB/c mice) stood at 0.702 fold. Moreover, in the experiment on brain [3] (RNA NGS, brain of C57Bl/6 mice), the “Fold enrichment over AAV9 … (C57Bl/6)” value is 0.625 fold.

GGSHTYGGGQNQQT: the “Fold enrichment over AAV9 in the brain of NHPs” value in experiment [1] (RNA from brain of NHPs, NGS) amounted to 1.241 fold. In addition, the “Fold enrichment over AAV9 in the spinal cord of NHPs” value in experiment [1] (setting [4]) came to 13.065 fold. For the same sequence, in the experiment with brain [2] (setting [5]), the “Fold enrichment over AAV9 … (BALB/c)” value came to 0.730 fold. For the same sequence, the “Fold enrichment over AAV9 … (C57Bl/6)” value in the experiment with brain [3] (setting [6]) was 0.982 fold.

GSGSPHVKSQNQQT: the “Fold enrichment over AAV9 in the brain of NHPs” value in experiment [1] (RNA NGS, brain of NHPs) is 37.551 fold. For the same sequence, in experiment [1] (RNA NGS, spinal cord of NHPs), the “Fold enrichment over AAV9 in the spinal cord of NHPs” value was found to be 13.649 fold. Also, the “Fold enrichment over AAV9 … (BALB/c)” value in the experiment with brain [2] (RNA NGS, brain of BALB/c mice) is 15.861 fold. Further, in the experiment on brain [3] (RNA NGS, brain of C57Bl/6 mice), the “Fold enrichment over AAV9 … (C57Bl/6)” value was determined as 8.069 fold.
